The text below walks through data of patent US20150011508A1, “COMPOUNDS AND COMPOSITIONS AS C-KIT KINASE INHIBITORS” (priority 2011, published 2015).

SMILES strings stand for the structures.

The target of this test is T1, c-kit (Homo sapiens, UniProt P10721).
T1 construct: human Mo7e cells which endogenously express c-kit; endogenous in cells; host or cells: human Mo7e cells (SCF-dependent promegakaryocytic leukemia line)
T1 sequence (P10721 26-976): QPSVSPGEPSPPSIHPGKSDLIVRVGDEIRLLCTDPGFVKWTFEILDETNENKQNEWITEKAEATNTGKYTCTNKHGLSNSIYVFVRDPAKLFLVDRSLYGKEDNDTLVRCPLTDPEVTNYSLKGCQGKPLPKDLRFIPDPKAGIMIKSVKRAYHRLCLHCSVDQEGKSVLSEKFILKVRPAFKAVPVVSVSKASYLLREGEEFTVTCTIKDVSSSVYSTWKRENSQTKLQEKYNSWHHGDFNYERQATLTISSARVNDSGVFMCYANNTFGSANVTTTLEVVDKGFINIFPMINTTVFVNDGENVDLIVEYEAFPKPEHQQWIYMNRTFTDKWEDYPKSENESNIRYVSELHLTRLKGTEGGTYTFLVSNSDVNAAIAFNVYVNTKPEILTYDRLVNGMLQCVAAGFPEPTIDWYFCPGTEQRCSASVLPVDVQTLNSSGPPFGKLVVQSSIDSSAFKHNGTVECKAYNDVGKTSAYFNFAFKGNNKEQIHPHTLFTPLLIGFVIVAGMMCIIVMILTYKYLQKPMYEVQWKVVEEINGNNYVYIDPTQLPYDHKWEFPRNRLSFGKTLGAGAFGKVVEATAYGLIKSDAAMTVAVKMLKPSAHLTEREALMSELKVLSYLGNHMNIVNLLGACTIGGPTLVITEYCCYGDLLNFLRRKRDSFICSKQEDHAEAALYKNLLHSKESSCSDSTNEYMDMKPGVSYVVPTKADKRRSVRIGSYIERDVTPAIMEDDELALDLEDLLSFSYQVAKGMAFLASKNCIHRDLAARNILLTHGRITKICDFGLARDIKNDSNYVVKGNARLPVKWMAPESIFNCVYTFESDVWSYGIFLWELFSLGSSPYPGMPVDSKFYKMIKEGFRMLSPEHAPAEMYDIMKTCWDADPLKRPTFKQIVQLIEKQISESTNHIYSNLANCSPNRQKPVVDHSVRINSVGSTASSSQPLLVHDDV
As to the kind of experiment: Mo7e cell proliferation assay (SCF dependent proliferation). The format is cell-based. The following applies: Table 1; human Mo7e cells stimulated with human recombinant SCF, 48 h, CellTiter Glo; 1% FBS (footnote). The method, then: Compounds of Formula (I) and Formula (II) provided herein were assayed to measure their capacity to inhibit c-kit and PDGFR kinases using the appropriate assay described below: c-Kit inhibition was evaluated using the Mo7e cell proliferation assay, and PDGFR inhibition was evaluated using the Rat A10 cell proliferation assay and the Human TGHA-VSMC cell proliferation assay.
The compounds of Table 1 and Table 2 were tested for inhibition of SCF dependent proliferation using human Mo7e cells which endogenously express c-kit in a 384 well format. […] After 48 hours of incubation at 37° C., cell viability was measured by adding 25 uL of CellTiter Glo (Promega) to the cells and the luminescence was measured by a CLIPR CCD camera (Molecular Devices).
The IC50 value is given as that concentration of the test compound in question that provoke a response halfway between the baseline and maximum responses.
Broadly, the IC50 is the point on the concentration scale where inhibition reaches its midpoint. In the case of `Cc1ccn2c(C(=O)Nc3cc(-c4noc(CC[C@](C)(O)C(F)(F)F)n4)ccc3C)cnc2c1` (single isomer, unassigned) [F75], the IC50 came out at 64 nM. For the compound `Cc1ccn2c(C(=O)Nc3cc(-c4noc(CC[C@@](C)(O)C(F)(F)F)n4)ccc3C)cnc2c1` (single isomer, unassigned) [F76], the IC50 was 49 nM. As for `COP(=O)(OC)OC(C)(CCc1nc(-c2ccc(C)c(NC(=O)c3cnc4cc(C)ccn34)c2)no1)C(F)(F)F` (single isomer, unassigned) [F267], the IC50 was 56 nM. To `COP(=O)(OC)OC(C)(CCc1nc(-c2ccc(C)c(NC(=O)c3cnc4cc(C)ccn34)c2)no1)C(F)(F)F` (single isomer, unassigned) [F269] belongs 50 nM; to `Cc1ccn2c(C(=O)Nc3cc(-c4noc(CCC(C)(OP(=O)(O)O)C(F)(F)F)n4)ccc3C)cnc2c1` (stereo in doubt) [F270, (R)-1,1,1-trifluoro-2-methyl-4-(3-(4-methyl-3-(7-methylimidazo[1,2-a]pyridine-3-carboxamido)phenyl)-1,2,4-oxadiazol-5-yl)butan-2-yl dihydrogen phosphate], 25 nM; to `Cc1ccc(-c2noc(CCC#N)n2)cc1NC(=O)c1cnc2ccccn12` [F1], 78 nM. To `Cc1ccc(-c2noc(CCNC(=O)OC(C)(C)C)n2)cc1NC(=O)c1cnc2ccccn12` [F2] belongs 63 nM. With `COCCCc1nc(-c2ccc(C)c(NC(=O)c3cnc4ccccn34)c2)no1` [F3], the IC50 is 44 nM. In the case of `CCN(CC)C(=O)CCc1nc(-c2ccc(C)c(NC(=O)c3cnc4ccccn34)c2)no1` [F4], the IC50 was 67 nM. With `CC(=O)CCc1nc(-c2ccc(C)c(NC(=O)c3cnc4ccccn34)c2)no1` [F5], the IC50 was 32 nM. Consider `Cc1ccc(-c2noc(CNC(=O)OC(C)(C)C)n2)cc1NC(=O)c1cnc2ccccn12` [F6], for which the IC50 is 8 nM. Regarding `CCOC(=O)Cc1nc(-c2ccc(C)c(NC(=O)c3cnc4ccccn34)c2)no1` [F7], the IC50 is 87 nM.

On to `Cc1ccc(-c2noc(CCC(C)(C)O)n2)cc1NC(=O)c1cnc2ccccn12` [F8, N-(5-(5-(3-hydroxy-3-methylbutyl)-1,2,4-oxadiazol-3-yl)-2-methylphenyl)imidazo[1,2-a]pyridine-3-carboxamide], for which the IC50 is 63 nM. For the compound `Cc1ccc(-c2noc(CCC(C)O)n2)cc1NC(=O)c1cnc2ccccn12` (centres unmarked) [F9, N-(5-(5-(3-hydroxybutyl)-1,2,4-oxadiazol-3-yl)-2-methylphenyl)imidazo[1,2-a]pyridine-3-carboxamide], the IC50 came to 87 nM.

Turning to `CCOCCc1nc(-c2ccc(C)c(NC(=O)c3cnc4ccccn34)c2)no1` [F10], the IC50 was found to be 42 nM. Take `Cc1nc(-c2ccc(C)c(NC(=O)c3cnc4ccccn34)c2)no1` [F11]: the IC50 was 86 nM.

`CCOCc1nc(-c2ccc(C)c(NC(=O)c3cnc4ccccn34)c2)no1` [F12]: the IC50 was determined as 49 nM. To `Cc1ccc(-c2noc([C@H](C)NC(=O)OC(C)(C)C)n2)cc1NC(=O)c1cnc2ccccn12` [F13] belongs 93 nM; to `CO[C@H](C)c1nc(-c2ccc(C)c(NC(=O)c3cnc4ccccn34)c2)no1` [F14], 99 nM; to `Cc1ccc(-c2noc(CC(C)(O)C(F)(F)F)n2)cc1NC(=O)c1cnc2ccccn12` (centres unmarked) [F15], 82 nM. To `Cc1ccc(-c2noc(CC(O)(C(F)(F)F)C(F)(F)F)n2)cc1NC(=O)c1cnc2ccccn12` [F16] belongs 22 nM; to `Cc1ccc(-c2noc(C(CO)(CO)NS(C)(=O)=O)n2)cc1NC(=O)c1cnc2ccccn12` [F17, N-(5-(5-(1,3-dihydroxy-2-(methylsulfonamido)propan-2-yl)-1,2,4-oxadiazol-3-yl)-2-methylphenyl)imidazo[1,2-a]pyridine-3-carboxamide], 67 nM; to `Cc1ccc(-c2noc([C@@H](C)NS(C)(=O)=O)n2)cc1NC(=O)c1cnc2ccccn12` [F18], 98 nM.
